Results on four compounds are retold here after US10316050B2, “PT (IV) complexes containing 4,4′-disubstituted-2,2′-bipyridyl and their use in cancer therapy” (THE BOARD OF REGENTS OF THE NEVADA SYSTEM OF HIGHER …, priority 2014, dated 2019).

Common to all, as to format: cell-based, human
Assay [1] relates to MCF-7 breast cancer cells. Put plainly: MTS cell viability assay, MCF-7. Conditions: read-out: EC50 (effective concentration that resulted in 50% cell viability). As for the experimental part: (§1) Human breast (HCC38, MCF-7, MDA-MB-231, SK-BR-3, T-47D, and ZR-75-1), lung (A549 and H520), and prostate (DU145 and PC-3) cancer cell lines were obtained from American Culture Type Collection (ATCC). The HCC38, MCF-7, MDA-MB-231, SK-BR-3, T-47D, ZR-75-1, and A549 cells were grown in MEM supplemented with 10% FBS, 25 mM HEPES buffer (pH 7.4), penicillin (100 U/mL), and streptomycin (100 μg/mL). The H520, DU145, and PC-3 cell lines were grown in RPMI-1640 supplemented with 10% FBS, 25 mM HEPES buffer (pH 7.4), penicillin (100 U/mL), and streptomycin (100 μg/mL). All cell lines were maintained at 37° C. in a humidified, 5% CO2 atmosphere.
(§2) Cells were cultured at a density of 2-3.5×10^3 cells per well in flat bottomed 96-well plates in 100 μL of complete growth medium and incubated for 2 days to reach ˜50% confluence. The cells were then treated with solvent or the appropriate drugs (CDDP stock was dissolved in 0.15 M NaCl, carboplatin stock was dissolved in 5% glucose, synthesized Pt(IV) complexes were dissolved in DMSO) for 1 hour, washed three times with 100 μL PBS, and incubated in 100 μL of fresh medium. After 2 days, the medium was replaced with 120 μL of medium containing CellTiter 96® Aqueous One Solution Reagent (MTS reagent) (Promega, Madison, Wis.). The cells were incubated at 37° C. for 4 hours and the cell viability was determined by measuring the absorbance at 490 nm using a Tecan Infinite M1000 microplate reader. The 48 h treatment was done in a similar manner, except the cells were not washed after treatment and the MTS reagent was immediately added. Viability of treated groups was calculated as a percent of control and graphed with GraphPad Prism.
(§3) The anti-proliferative activities of Pt(IV) complexes were determined in two lung (A549 and H520), two prostate (DU145 and PC-3), and six breast (HCC38, MCF-7, MDA-MB-231, SK-BR-3, T-47D, and ZR-75-1) cancer cell lines. The cells were treated with increasing concentrations of cisplatin (CDDP), carboplatin, or the Pt(IV) complexes for 1 or 48 hours, and the viability was measured using an MTS colorimetric cell proliferation assay. Graphs of the results are shown for DU145 (FIG. 8A), PC-3 (FIG. 8B), SK-BR-3 (FIG. 8C), ZR-75-1 (FIG. 8D), A549 (FIG. 8E), and MCF-7 (FIG. 8F).

The subject of assay [2] is SK-BR-3 breast cancer cells. Nature of the assay: MTS cell viability assay, SK-BR-3. Conditions: read-out: EC50 (effective concentration that resulted in 50% cell viability). As for the experimental part:
as §1, §2, §3
(§4) The anti-proliferative activities of certain Pt(II) complexes were determined in DU145, PC-3, and SK-BR-3 cells. The cells were treated with increasing concentrations of cisplatin (CDDP) or the Pt(II) complexes for 1 or 48 hours, and the viability was measured using an MTS colorimetric cell proliferation assay.
For orientation: Tetrazolium assays rely on reduction of a dye to a coloured formazan, in cell work by metabolically active cells.

Assay [3] relates to PC-3 prostate cancer cells. Nature of the assay: MTS cell viability assay, PC-3. As to conditions: read-out: EC50 (effective concentration that resulted in 50% cell viability). As for the experimental part: as §1, §2, §3, §4
Assay [4] deals with HCC38 breast cancer cells. Put plainly: MTS cell viability assay, HCC38. Conditions: read-out: EC50 (effective concentration that resulted in 50% cell viability). As to the method: as §1, §2, §3
Assay [5] relates to DU145 prostate cancer cells. As to conditions: read-out: EC50 (effective concentration that resulted in 50% cell viability). As to the method: as §1, §2, §3, §4
Assay [6] concerns MDA-MB-231 breast cancer cells. Nature of the assay: MTS cell viability assay, MDA-MB-231. As to conditions: read-out: EC50 (effective concentration that resulted in 50% cell viability). As for the experimental part:
as §1, §2, §3

The test system of assay [7] is T-47D breast cancer cells. Put plainly: MTS cell viability assay, T-47D. As to the method: as §1, §2, §3
Assay [8] has as its system H520 lung cancer cells. Put plainly: MTS cell viability assay, H520. Conditions: read-out: EC50 (effective concentration that resulted in 50% cell viability). As to the method:
as §1, §2, §3

For assay [9], the system named is ZR-75-1 breast cancer cells. Nature of the assay: MTS cell viability assay, ZR-75-1. Conditions: read-out: EC50 (effective concentration that resulted in 50% cell viability). As for the experimental part: as §1, §2, §3
Assay [10] has as its system A549 lung cancer cells. Nature of the assay: MTS cell viability assay, A549. Conditions: read-out: EC50 (effective concentration that resulted in 50% cell viability). As for the experimental part: as §1, §2, §3
Where [11] appears, read: SK-BR-3, 1 h treatment, Table 2.
The mark [12] stands for this setting: SK-BR-3, 48 h treatment, Table 4.
Where [13] appears, read: MDA-MB-231, 1 h treatment, Table 2.
[14] abbreviates: MDA-MB-231, 48 h treatment, Table 4.
The mark [15] stands for this setting: 1 h treatment, Table 2, read-out: EC50 (effective concentration that resulted in 50% cell viability).
Where [16] appears, read: 48 h treatment, Table 4, read-out: EC50 (effective concentration that resulted in 50% cell viability).
Setting [17] is: ZR-75-1, 1 h treatment, Table 2.
The mark [18] stands for this setting: ZR-75-1, 48 h treatment, Table 4.

Read-outs that look alike come from different tables or passages of the source.

In the case of `CCCCCCOc1ccnc(-c2cc(OCCCCCC)ccn2)c1.[Cl][Pt][Cl]` [Pt(II)-6C], the EC50 worked out at 80 ± 30 µM in assay [1] (MCF-7, 1 h treatment, Table 2); 12 ± 4 µM in assay [1] (MCF-7, 48 h treatment, Table 4); 1.84 ± 0.03 µM in [2] (setting [11]); 1.8 µM in [2] (setting [12]); 2.24 ± 0.03 µM in assay [3] (PC-3, 1 h treatment, Table 2); 2.7 ± 0.1 µM in assay [3] (PC-3, 48 h treatment, Table 4). Moreover, the EC50 in [4] (HCC38, 1 h treatment, Table 2) was 16 ± 5 µM; in assay [4] (HCC38, 48 h treatment, Table 4), 14 ± 4 µM; in [5] (DU145, 1 h treatment, Table 2) it was 2.1 ± 0.1 µM; in assay [5] (DU145, 48 h treatment, Table 4), 1.9 ± 0.1 µM; in assay [6] (setting [13]), 6 ± 3 µM; in [6] (setting [14]), 4 ± 1 µM. In addition, the EC50 in assay [7] (setting [15]) was 3.2 ± 0.8 µM; in assay [7] (setting [16]), 2.1 ± 0.2 µM; in assay [8] (H520, 1 h treatment, Table 2), over 50 µM; in assay [8] (H520, 48 h treatment, Table 4), 18 ± 1 µM; in assay [9] (setting [17]) it was 7 ± 2 µM; in assay [9] (setting [18]) it was 6.4 ± 0.4 µM. Also, the EC50 was 66 ± 16 µM in assay [10] (A549, 1 h treatment, Table 2) and 19.1 ± 0.8 µM in [10] (A549, 48 h treatment, Table 4).

As to `CCCOc1ccnc(-c2cc(OCCC)ccn2)c1.[Cl][Pt][Cl]` [Pt(II)-3C], the EC50 in [1] (MCF-7, 1 h treatment, Table 2) turned out to be 100 µM; in [1] (MCF-7, 48 h treatment, Table 4), 19 ± 4 µM; in assay [2] (setting [11]), 1.81 ± 0.03 µM; in [2] (setting [12]), 1.73 ± 0.01 µM; in assay [3] (PC-3, 1 h treatment, Table 2), 5 ± 1 µM; in assay [3] (PC-3, 48 h treatment, Table 4), 5.1 ± 0.8 µM. Besides, the EC50 in [4] (HCC38, 1 h treatment, Table 2) came out at 3 ± 2 µM; in assay [4] (HCC38, 48 h treatment, Table 4), 4.7 ± 0.5 µM; in assay [5] (DU145, 1 h treatment, Table 2), 6 ± 1 µM; in [5] (DU145, 48 h treatment, Table 4), 4 ± 2 µM; in assay [6] (setting [13]), 4 ± 2 µM; in [6] (setting [14]), 2.2 ± 0.1 µM. Further, the EC50 in [7] (setting [15]) came to 2.4 ± 0.1 µM; in assay [7] (setting [16]), 1.9 ± 0.1 µM; in assay [8] (H520, 1 h treatment, Table 2), 40 ± 20 µM; in assay [8] (H520, 48 h treatment, Table 4) it was 13 ± 5 µM; in assay [9] (setting [17]), 8.9 ± 0.4 µM; in assay [9] (setting [18]) it was 5 ± 1 µM. The EC50 in assay [10] (A549, 1 h treatment, Table 2) was determined as 48 ± 3 µM; in [10] (A549, 48 h treatment, Table 4), 17 ± 1 µM.

For `COc1ccnc(-c2cc(OC)ccn2)c1.[Cl][Pt][Cl]` [Pt(II)-1C], the EC50 in assay [1] (MCF-7, 1 h treatment, Table 2) was over 100 µM; in assay [1] (MCF-7, 48 h treatment, Table 4), over 100 µM; in [2] (setting [11]), 19 ± 5 µM; in assay [2] (setting [12]), 23 ± 2 µM; in assay [3] (PC-3, 1 h treatment, Table 2), over 100 µM; in assay [3] (PC-3, 48 h treatment, Table 4), 40 ± 7 µM. Also, the EC50 in assay [4] (HCC38, 1 h treatment, Table 2) is 80 ± 20 µM; in assay [4] (HCC38, 48 h treatment, Table 4), 57 ± 2 µM; in assay [5] (DU145, 1 h treatment, Table 2), 40 ± 10 µM; in assay [5] (DU145, 48 h treatment, Table 4), 24 ± 2 µM; in assay [6] (setting [13]), over 100 µM; in assay [6] (setting [14]), over 100 µM. The EC50 in [7] (setting [15]) is 20 ± 1 µM; in [7] (setting [16]) it was 21 ± 1 µM; in assay [8] (H520, 1 h treatment, Table 2), over 100 µM; in assay [8] (H520, 48 h treatment, Table 4), 30 ± 2 µM; in assay [9] (setting [17]), 67 ± 27 µM; in assay [9] (setting [18]) it was 26 ± 1 µM. Moreover, the EC50 is over 100 µM in [10] (A549, 1 h treatment, Table 2) and over 100 µM in assay [10] (A549, 48 h treatment, Table 4).

For `CCOc1ccnc(-c2cc(OCC)ccn2)c1.[Cl][Pt][Cl]` [Pt(II)-2C], the EC50 in assay [1] (MCF-7, 1 h treatment, Table 2) is over 100 µM; in assay [1] (MCF-7, 48 h treatment, Table 4), over 100 µM; in assay [2] (setting [11]), 2.2 ± 0.2 µM; in [2] (setting [12]), 1.8 µM; in assay [3] (PC-3, 1 h treatment, Table 2) it was 22 ± 5 µM; in assay [3] (PC-3, 48 h treatment, Table 4), 21 ± 7 µM. For the same compound, the EC50 came out at 18 ± 4 µM in assay [4] (HCC38, 1 h treatment, Table 2); 20 ± 3 µM in assay [4] (HCC38, 48 h treatment, Table 4); 20 ± 5 µM in assay [5] (DU145, 1 h treatment, Table 2); 11 ± 4 µM in assay [5] (DU145, 48 h treatment, Table 4); 30 ± 20 µM in assay [6] (setting [13]); 20 ± 6 µM in assay [6] (setting [14]). Moreover, the EC50 in assay [7] (setting [15]) was 5 ± 2 µM; in assay [7] (setting [16]), 2.2 ± 0.4 µM; in [8] (H520, 1 h treatment, Table 2), over 100 µM; in assay [8] (H520, 48 h treatment, Table 4) it was 21 ± 1 µM; in assay [9] (setting [17]) it was 58 ± 15 µM; in assay [9] (setting [18]), 16.5 µM. Moreover, the EC50 in assay [10] (A549, 1 h treatment, Table 2) was over 100 µM; in assay [10] (A549, 48 h treatment, Table 4), 66 ± 7 µM.
